Experimental data from patent publication US10597382B2, “Tetrazole containing apoptosis signal-regulating kinase 1 inhibitors and methods of use thereof” (ENANTA PHARMACEUTICALS, INC., priority 2017, dated 2020).

Each compound was assayed against ASK1 kinase (Homo sapiens (Human), UniProt Q99683) (assay: HTRF KinEASE assay of ASK1 kinase activity inhibition). Conditions: HTRF KinEASE-STK TR-FRET; 5 nM ASK1, 1 uM STK3 peptide substrate, 100 uM ATP, 3 hours.
Assay type: biochemical
Method: • The ability (IC50) of compounds to inhibit ASK1 kinase activity was determined by HTRF® KinEASE™ Assay System
ASK1 kinase was from Thermofisher (Catalogue # PV4011), ATP was from Sigma (Catalogue # A7699), HTRF® KinEASE™ Assay System was obtained from Cisbio (Bedford, Mass.). ½ Area plate was from Perkin Elmer (Catalogue #6005560). HTRF® KinEASE™-STK is a generic method for measuring serine/threonine kinase activities using time-resolved fluorescence resonance energy transfer (TR-FRET) immunoassay. The IC50 value for each compound was determined in the presence of compound (various concentration from 0 to 10 uM) and a fixed amount of ATP, peptide substrates. Test compound, 1 uM STK3 peptide substrate, 5 nM of ASK1 kinase are incubated with kinase reaction buffer, containing 50 mM HEPES pH 7.5, 0.01% BRIJ-35, 10 mM MgCl2, and 1 mM EGTA for 30 minutes, then 100 uM ATP is added to start kinase reaction and incubated for 3 hours. The STK3-antibody labeled with Eu^3+-Cryptate and 125 nM streptavidin-XL665 are mixed in a single addition with stop reagents provided by the Cisbio kit used to stop the kinase reaction. Fluorescence is detected using Envision Multilabeled 2014 reader from PerkinElmer. The Fluorescence is measured at 615 nm (Cryptate) and 665 nm (XL665) and a ratio of 665 nm/615 nm is calculated for each well. The resulting TR-FRET is proportional to the phosphorylation level. Staurosporine was used as the positive control. IC50 was determined by Xlfit 5.3.
By using above method, the inhibition of ASK1 was tested for the compound of formula (I). IC50 ranges are as follows: A<1 nM; 1 nM<[…]B<10 nM; 10 nM<C<100 nM; 100 nM<D<1 μM; E>1 μM.

ASK1 kinase, sequence (Q99683 whole entry): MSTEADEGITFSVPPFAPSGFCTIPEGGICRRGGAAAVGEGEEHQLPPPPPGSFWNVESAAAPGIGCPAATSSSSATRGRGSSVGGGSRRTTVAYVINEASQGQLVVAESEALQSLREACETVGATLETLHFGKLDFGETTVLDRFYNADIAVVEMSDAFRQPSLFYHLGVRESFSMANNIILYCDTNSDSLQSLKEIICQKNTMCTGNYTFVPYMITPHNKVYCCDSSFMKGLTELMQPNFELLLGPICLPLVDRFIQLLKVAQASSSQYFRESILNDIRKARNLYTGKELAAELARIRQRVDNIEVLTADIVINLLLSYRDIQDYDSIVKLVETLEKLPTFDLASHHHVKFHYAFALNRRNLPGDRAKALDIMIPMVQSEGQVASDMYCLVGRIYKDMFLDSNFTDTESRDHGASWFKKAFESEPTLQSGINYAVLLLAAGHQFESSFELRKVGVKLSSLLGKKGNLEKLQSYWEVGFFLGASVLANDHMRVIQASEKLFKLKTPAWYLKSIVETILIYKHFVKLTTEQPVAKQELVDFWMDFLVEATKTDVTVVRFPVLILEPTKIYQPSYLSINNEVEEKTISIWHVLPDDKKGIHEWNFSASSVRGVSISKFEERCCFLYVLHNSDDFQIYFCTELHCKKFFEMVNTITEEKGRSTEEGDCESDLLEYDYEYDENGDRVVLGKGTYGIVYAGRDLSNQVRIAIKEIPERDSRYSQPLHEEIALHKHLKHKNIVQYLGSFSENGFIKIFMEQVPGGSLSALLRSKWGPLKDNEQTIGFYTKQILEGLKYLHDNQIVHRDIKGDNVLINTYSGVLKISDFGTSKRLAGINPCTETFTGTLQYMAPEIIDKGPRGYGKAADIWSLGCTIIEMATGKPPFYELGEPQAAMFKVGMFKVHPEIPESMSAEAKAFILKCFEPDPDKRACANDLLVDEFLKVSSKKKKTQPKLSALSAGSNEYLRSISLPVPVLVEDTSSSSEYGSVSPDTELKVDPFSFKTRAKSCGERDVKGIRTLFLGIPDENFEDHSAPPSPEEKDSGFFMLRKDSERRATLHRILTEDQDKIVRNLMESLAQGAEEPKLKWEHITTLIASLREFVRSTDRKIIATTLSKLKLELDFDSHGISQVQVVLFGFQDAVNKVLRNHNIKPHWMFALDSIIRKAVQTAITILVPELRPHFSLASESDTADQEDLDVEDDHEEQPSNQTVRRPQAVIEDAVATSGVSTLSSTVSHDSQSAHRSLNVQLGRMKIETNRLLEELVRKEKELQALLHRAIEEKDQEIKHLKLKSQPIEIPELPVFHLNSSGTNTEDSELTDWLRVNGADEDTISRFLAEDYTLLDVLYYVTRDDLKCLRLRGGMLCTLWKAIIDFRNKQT

IC50	Compound
0.001 to 0.01 µM	CC(C)c1nnnn1-c1cccc(N2Cc3ccc(-n4cnc(C5CC5)c4)cc3C2=O)n1 [Example 1, 6-(4-cyclopropyl-1H-imidazol-1-yl)-2-(6-(5-isopropyl-1H-tetrazol-1-yl)pyridine-2-yl)isoindolin-1-one]
0.01 to 0.1 µM	CC(C)n1nnnc1-c1cccc(N2Cc3ccc(-n4cnc(C5CC5)c4)cc3C2=O)n1 [Example 2, 6-(4-cyclopropyl-1H-imidazol-1-yl)-2-(6-(1-isopropyl-1H-tetrazol-5-yl)pyridine-2-yl)isoindolin-1-one]
0.1 to 1 µM	CC(=O)OC[C@@H](C)n1nnnc1-c1cccc(N2Cc3ccc(-n4cnc(C5CC5)c4)cc3C2=O)n1 [Example 3, I-2-(5-(6-(6-(4-cyclopropyl-1H-imidazol-1-yl)-1-oxoisoindolin-2-yl)pyridine-2-yl)-1H-tetrazol-1-yl)propyl acetate]
0.01 to 0.1 µM	C[C@H](CO)n1nnnc1-c1cccc(N2Cc3ccc(-n4cnc(C5CC5)c4)cc3C2=O)n1 [Example 4, I-6-(4-cyclopropyl-1H-imidazol-1-yl)-2-(6-(1-(1-hydroxypropan-2-yl)-1H-tetrazol-5-yl)pyridine-2-yl)isoindolin-1-one]
> 1 µM	CC(=O)OC[C@@H](C)n1nnnc1-c1cccc(N2Cc3ccc(OC(C)C)cc3C2=O)n1 [Example 5, I-2-(5-(6-(6-isopropoxy-1-oxoisoindolin-2-yl)pyridine-2-yl)-1H-tetrazol-1-yl)propyl acetate]
0.001 to 0.01 µM	CC(C)Oc1ccc2c(c1)C(=O)N(c1cccc(-c3nnnn3[C@H](C)CO)n1)C2 [Example 6, I-2-(6-(1-(1-hydroxypropan-2-yl)-1H-tetrazol-5-yl)pyridine-2-yl)-6-isopropoxyisoindolin-1-one]
0.01 to 0.1 µM	CC(C)n1nnnc1-c1cccc(N2Cc3ccccc3C2=O)n1 [Example 7]
0.1 to 1 µM	CC(C)c1nnnn1-c1cccc(N2Cc3ccc(N4CCOCC4)cc3C2=O)n1 [Example 8]
0.01 to 0.1 µM	CC(C)c1nnnn1-c1cccc(N2Cc3ccc(-c4cccnc4)cc3C2=O)n1 [Example 9]
0.01 to 0.1 µM	CCN1CCN(c2ccc3c(c2)C(=O)N(c2cccc(-n4nnnc4C(C)C)n2)C3)CC1=O [Example 10]
0.1 to 1 µM	Cc1ncccc1-c1ccc2c(c1)C(=O)N(c1cccc(-n3nnnc3C(C)C)n1)C2 [Example 11]
0.1 to 1 µM	Cc1ccncc1-c1ccc2c(c1)C(=O)N(c1cccc(-n3nnnc3C(C)C)n1)C2 [Example 12]
0.001 to 0.01 µM	CC(C)n1nnnc1-c1cccc(N2Cc3ccc(-c4cccnc4)cc3C2=O)n1 [Example 13]
0.001 to 0.01 µM	Cc1cc2c(cc1OC(C)C)C(=O)N(c1cccc(-c3nnnn3[C@H](C)CO)n1)C2 [Example 14]
0.01 to 0.1 µM	CC(C)n1nnnc1-c1cccc(N2Cc3ccc(-c4cncc(C5CC5)c4)cc3C2=O)n1 [Example 15]
0.01 to 0.1 µM	CC(C)n1nnnc1-c1cccc(N2Cc3ccc(-c4ccc(C5CC5)nc4)cc3C2=O)n1 [Example 16]
